# Reference: patent US20140234373A1, “Methods of Promoting Immune Tolerance” (Georgia Regents University, priority 2011, published 2014)
# How the values were obtained:
# [1] = system: B6 mice (mBSA-induced arthritis); assay: mBSA-induced arthritis model; assay type: in vivo; details: local joint inflammation
# Protocol: B6 mice were sensitized with methylated BSA (mBSA, s/c, […] in CFA (day 0). Booster injections of mBSA in IFA were given on days 7 and 14, and arthritis was induced on day 21 by intra-articular injection of mBSA (10 μg in PBS, challenge).
# Arthritis severity was evaluated by measuring joint swelling, neutrophil infiltration, and histological analysis as described (Lemos, et al., Proc Natl Acad Sci USA, 106:5954-5959 (2009)). In brief, joint swelling was assessed using a vernier caliper, and was expressed as the increase in diameter (mm) relative to non-inflamed joints in each mouse at experimental starting points. Neutrophils were counted after harvesting cells from articular cavities 24 hours after mBSA challenge. Results were presented as neutrophil numbers per cavity (mean±SEM). Arthritis was analyzed histologically 28 days after initial immunization (experimental endpoints). Knee joints were dissected and fixed in 10% buffered formalin for 3 days. […] Sections were examined by two independent observers and graded blindly using a semi-quantitative score from 0 to 3 (0, no; 1, mild; 2, moderate; 3, severe alterations) for the extent of (a) synovial lining layer hyperplasia and (b) infiltration of leukocytes into synovial membrane/joint space (as measures of joint inflammation); and (c) pannus formation and necrosis/erosion of cartilage (as a measure of joint destruction). […]
# OT-1 T cells = assay: DC suppression assay (splenic DCs from treated mice with OT-1 T cells); assay type: in vivo; details: DCs from pDNA/PEI-treated B6 mice, 1MT 100 μM
# Protocol: MACS-enriched splenic DCs (CD11c+) and Tregs (CD4+CD25+) were isolated according to manufacturer's instructions, except that cells were incubated with beads at RT (Magnetic Cell Separation Technology (MACS)—Miltenyi Biotec Inc., Auburn, Calif.). T cell stimulatory activity of DCs was assessed by culturing graded numbers of DCs (X-Y) with responder (MACS-enriched) CD8+ T cells from OT-1 (+SIINFEKL peptide) (SEQ ID NO:1) TCR-Tg mice+/−1MT as described (11). Suppressor activity of splenic Tregs was assessed by culturing graded numbers of Tregs with responder A1 (H-Y-specific) T cells, APCs (female CBA) and male (H-Y) peptide; a cocktail of anti-PD-1, anti-PD-L1, and anti-PD-L2 mAbs was added to some cultures to block PD-1-PD-L interactions as described (Baban, et al., J Immunol, 183:2475-2483 (2009), Sharma, et al., J Clin Invest 117:2570-2582 (2007)).
# Assays to detect IDO-dependent T cell regulatory phenotypes in splenic DCs were performed as previously described. Briefly, MACS enriched (CD11c^+) spleen cells were cultured for 72 hours with MACS-enriched CD8α^+ T cells from OT-1 TCR transgenic mice and OVA257-264 peptide (SIINFEKL (SEQ ID NO:1)), 100 nM). Proliferation was assessed by adding 1 μCi methyl-[^3H]-thymidine for the final 6 hours and quantified using a BetaPlate counter (Wallac). […] Proliferation was assessed as described above. […]
# NODf mice = assay: Type I diabetes onset in NOD female mice; assay type: in vivo; details: oral 1MT, no other treatment
# Source text: IDO slows T1D progression in a subset of NODf mice (FIG. 10 (-▴-)), as IDO inhibitor accelerated disease onset in at least 50% of NOD female mice.
# [2] = system: OVA-specific OT-2 T cells; assay: In vivo suppression assay, OT-2 T cell responses to OVA immunization; details: oral 1MT with pDNA/PEI, OVA-immunized B6 mice
# Protocol: CFSE-labeled OVA-specific T cells from OT-1 or OT-2 donor mice were injected (i/v) into recipient B6 mice at least 1 day before immunization. CFSE labeling was performed by incubating MACS-enriched splenic CD8+ (OT-1) or CD4+ (OT-2) T cells at ˜10×10^6 cells/ml in PBS with 2 μM CFSE at 37° C. for 15 mins Cells were washed in PBS and injected into recipients (i/v). Mice were then immunized with […] erythrocyte-free spleen cells from Act-mOVA transgenic mice (s/c), and treated with pDNA/PEI nanoparticles and oral 1MT as indicated in FIG. 3.
# Cells were stained with the following antibodies; anti-CD4 (clone RM4-5), anti-Thy1.1 (clone OX-7), anti-NK1.1 (clone PK136), anti-CD49b (clone DX5), anti-IFNγ (clone XMG1.2) from Pharmingen-BD-Biosciences (San Jose, Calif.), and analyzed using a LSR2 flow cytometer (Becton-Dickinson). CFSE was purchased from Invitrogen. For detecting intracellular IFNγ, cells were surface stained with anti-NK1.1 and anti-DX5, fixed with cytofix/cytoperm, washed with Perm/Wash solution (BD Bioscience) and stained with anti-IFNγ. Some cells were incubated in RPMI with 1 μM of brefeldin (BD Bioscience) for 3 hrs. with no further stimulations to accumulate cytokine before staining. For detecting IFNγ in OT-2 T cells, dLN cells were stimulated with PMA/ionomycin for 2 hrs. with brefeldin. […]
smiles,measurement,setting,value
"Cn1cc(C[C@@H](N)C(=O)O)c2ccccc21 [1MT, 1-methyl-[D]-tryptophan]",effect of oral 1MT on ameliorative effects of pAT/PEI therapy,[1],reversed
same,effect of adding 1MT on T cell responses,OT-1 T cells,restored robust T cell responses
same,mice that developed diabetes faster than control,NODf mice,50%
same,mice that developed diabetes faster than control,NODf mice; listed as IDO inhibitor,at least 50%
same,effect of IDO inhibitor on suppressive effects of DNP treatment,[2],abrogated
